Measurements taken from PubChem BioAssay (NCI).
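GI50 marks 50% less growth. TGI: concentration producing complete growth inhibition.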

Assays:
Assay in all cases: inhibition of tumour cell growth, NCI panel, 384-well format
[1] = test system: U251 glioblastoma
[2] = test system: DU-145 prostate
[3] = test system: 786-0 renal
[4] = test system: NCI/ADR-RES ovarian
[5] = test system: HOP-62 NSCLC
[6] = test system: OVCAR-4 ovarian
[7] = test system: SF-268 CNS
[8] = test system: UACC-257 melanoma
[9] = test system: ACHN renal
[10] = test system: M14 melanoma
[11] = test system: MCF7 breast
[12] = test system: MDA-MB-468 breast
[13] = test system: A498 renal
[14] = test system: SK-MEL-2 melanoma
[15] = test system: COLO 205 colon
[16] = test system: UO-31 renal
[17] = test system: SF-295 CNS
[18] = test system: SK-MEL-28 melanoma
[19] = test system: OVCAR-5 ovarian
[20] = test system: NCI-H522 lung
[21] = test system: CAKI-1 renal
[22] = test system: MDA-MB-435 melanoma
[23] = test system: SF-539 CNS
[24] = test system: SK-MEL-5 melanoma
[25] = test system: TK-10 renal
[26] = test system: UACC-62 melanoma
[27] = test system: SR leukemia
[28] = test system: MALME-3M melanoma
[29] = test system: SW-620 colon

C[C@H](c1ccc(Cl)cc1N)N1C(=O)c2cc(I)ccc2N(CCCN2CCN(C)CC2)C(=O)[C@@H]1c1ccc(Cl)cc1
TGI [1]: 3020 nM
GI50 [2]: 1760 nM
TGI [2]: 3160 nM
GI50 [3]: 1600 nM
TGI [3]: 2960 nM
GI50 [4]: 1590 nM
TGI [4]: 2950 nM
GI50 [5]: 1620 nM
TGI [5]: 2980 nM
GI50 [6]: 1560 nM
TGI [6]: 2900 nM
GI50 [7]: 1770 nM
TGI [7]: 3160 nM
GI50 [8]: 1220 nM
TGI [8]: 2470 nM
GI50 [9]: 965 nM
TGI [9]: 2160 nM
GI50 [10]: 1140 nM
TGI [10]: 2360 nM
GI50 [11]: 1060 nM
TGI [11]: 2260 nM
GI50 [12]: 1710 nM
TGI [12]: 3090 nM
GI50 [13]: 779 nM
TGI [13]: 2040 nM
GI50 [14]: 1590 nM
TGI [14]: 2940 nM
GI50 [15]: 1640 nM
TGI [15]: 3020 nM
GI50 [16]: 1150 nM
TGI [16]: 2370 nM
GI50 [17]: 1700 nM
TGI [17]: 3080 nM
GI50 [18]: 1590 nM
TGI [18]: 2950 nM
GI50 [19]: 1770 nM
TGI [19]: 3160 nM
GI50 [20]: 1540 nM
TGI [20]: 2880 nM
GI50 [21]: 482 nM
TGI [21]: 1780 nM
GI50 [22]: 1710 nM
TGI [22]: 3080 nM
GI50 [23]: 1640 nM
TGI [23]: 3010 nM
GI50 [24]: 1110 nM
TGI [24]: 2310 nM
GI50 [25]: 1580 nM
TGI [25]: 2920 nM
GI50 [26]: 591 nM
TGI [26]: 1950 nM
GI50 [27]: 144 nM
TGI [27]: 280 nM
GI50 [28]: 1060 nM
TGI [28]: 2250 nM
GI50 [29]: 1780 nM
TGI [29]: 3190 nM
